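The compound was tested at five concentrations on cells cultured in 96-well plates, with a 48-hour exposure period. GI50 marks 50% less growth.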 Calls of active or inactive are those of the source. Cut-off read from the data, not from the text of the source: active = GI50 up to about 1.1 µM and inactive = higher.

The source of these data is ChEMBL document CHEMBL1201862, “PubChem BioAssay data set” (2004).

Test systems include BT-549; SF-268; ACHN; T47D; SK-MEL-5; MOLT-4; SNB-19; OVCAR-8; HOP-62; 786-0; SR; NCI-H226; Hs-578T; SK-OV-3; SNB-78; UACC-257; HCT-116; IGROV-1; NCI/ADR-RES; SK-MEL-28.
What all share (assay): inhibition of tumour cell growth, NCI panel, 48 h

For `COC(=O)NC1C(C)OC(OC2C/C=C(/C)C3C=CC4C(OC5CC(OC6CCC(OC7CC(O)C(OC8CCC(O)C(C)O8)C(C)O7)C(C)O6)C(OC(C)=O)C(C)O5)C(C)CC(C)C4C3(C)/C(O)=C3/C(=O)OC4(CC(C=O)=CC(O)C4/C=C\2C)C3=O)CC1(C)[N+](=O)[O-]` (stereo not drawn), the GI50 in the assay on BT-549 was 1.04 µM (active); in the assay with SF-268, 0.719 µM (active); in the assay on ACHN, 1.02 µM (active); with T47D it was 2.06 µM (inactive); with SK-MEL-5, 0.82 µM (active); in the assay on MOLT-4, 0.474 µM (active). The GI50 in the assay on SNB-19 is 0.69 µM (active); with OVCAR-8, 1 µM (active); in the assay with HOP-62 it was 0.767 µM (active); in the assay with 786-0, 0.861 µM (active); with SR, 0.857 µM (active); in the assay with NCI-H226, 1.06 µM (active). The GI50 was 0.282 µM (active) with Hs-578T; 2.44 µM (inactive) in the assay with SK-OV-3; 1.82 µM (inactive) in the assay on SNB-78; 0.724 µM (active) with UACC-257; 0.69 µM (active) in the assay on HCT-116; 3.44 µM (inactive) in the assay with IGROV-1. Moreover, the results for the GI50 in the assay on NCI/ADR-RES and in the assay on SK-MEL-28 were 6.17 µM (inactive) and 0.403 µM (active), respectively.

Consider `O=C(/C=C/c1ccccc1O)c1cccnc1`, for which the GI50 in the assay on SF-268, in the assay with ACHN, in the assay with SK-MEL-5, with MOLT-4, in the assay on SNB-19 and in the assay on OVCAR-8 was > 100 µM (inactive) in each case. The GI50 in the assay with HOP-62, in the assay with 786-0, with SR, in the assay with NCI-H226, in the assay on SK-OV-3 and in the assay on SNB-78 was > 100 µM (inactive) each time. In addition, the GI50 in the assay with UACC-257, in the assay with HCT-116, in the assay with IGROV-1 and with SK-MEL-28 was > 100 µM (inactive) in each case.

`COc1ccc(C(C)c2cc3c(cc2OC)OCO3)cc1` (stereo not drawn): the GI50 in the assay on BT-549 was 51.8 µM (inactive); in the assay on SF-268 it was 0.614 µM (active); with ACHN, 3.01 µM (inactive); with T47D it was 2.08 µM (inactive); in the assay on SK-MEL-5, 0.0659 µM (active); with MOLT-4, 0.264 µM (active). In addition, the GI50 was 2.61 µM (inactive) in the assay on SNB-19; 0.269 µM (active) in the assay on OVCAR-8; 0.124 µM (active) in the assay on HOP-62; 0.098 µM (active) in the assay on 786-0; 0.881 µM (active) in the assay on SR; 0.416 µM (active) in the assay on NCI-H226. The GI50 in the assay with Hs-578T is 0.0207 µM (active); with SK-OV-3, 0.2 µM (active); with SNB-78, 0.612 µM (active); in the assay with UACC-257, 7.38 µM (inactive); with HCT-116, 0.111 µM (active); in the assay on IGROV-1 it was 0.104 µM (active). Also, the GI50 was 0.0268 µM (active) in the assay with NCI/ADR-RES and 2.33 µM (inactive) in the assay on SK-MEL-28.

In the case of `COC(=O)c1ccc2c(c1)C(NC(C)=O)CCc1cc(OC)c(OC)c(OC)c1-2` (stereo not drawn), the GI50 with BT-549 is 0.104 µM (active); with SF-268, 0.0139 µM (active); with ACHN, 0.018 µM (active); in the assay on T47D, > 100 µM (inactive); in the assay on SK-MEL-5, 0.013 µM (active); with MOLT-4, 0.0151 µM (active). Further, the GI50 in the assay with SNB-19 is 0.0183 µM (active); with OVCAR-8, 0.0154 µM (active); in the assay on HOP-62, 0.0158 µM (active); with 786-0, 0.015 µM (active); with SR, 0.0123 µM (active); in the assay on NCI-H226, 0.0424 µM (active). The GI50 was 0.0122 µM (active) with Hs-578T; 0.0188 µM (active) with SK-OV-3; < 0.0152 µM (active) in the assay on SNB-78; 0.53 µM (active) in the assay with UACC-257; < 0.0114 µM (active) in the assay with HCT-116; 0.0163 µM (active) with IGROV-1. For the same compound, the GI50 with NCI/ADR-RES is 0.0416 µM (active); in the assay on SK-MEL-28, 0.0265 µM (active).

`CCOC(=O)c1c(C(F)(F)F)oc2c1ccc1nc3nonc3nc12`: the GI50 was 17.9 µM (inactive) with SF-268; 15.3 µM (inactive) in the assay on ACHN; 13.4 µM (inactive) with SK-MEL-5; 2.54 µM (inactive) with MOLT-4; 18.2 µM (inactive) with SNB-19; 16.3 µM (inactive) in the assay on OVCAR-8. Also, the GI50 with HOP-62 is 13.8 µM (inactive); with 786-0 it was 12.4 µM (inactive); with SR, 3.58 µM (inactive); in the assay on NCI-H226 it was 19.9 µM (inactive); with SK-OV-3 it was 20.1 µM (inactive); with SNB-78, 14.7 µM (inactive). Moreover, the GI50 with UACC-257 is 13.5 µM (inactive); in the assay on HCT-116 it was 17 µM (inactive); in the assay on IGROV-1, 23.2 µM (inactive); with SK-MEL-28, 14.3 µM (inactive).

For `CCCCC1CC(c2cccc([N+](=O)[O-])c2)=NO1` (stereo not drawn), the GI50 is > 100 µM (inactive) with SF-268; > 100 µM (inactive) in the assay with ACHN; 43.1 µM (inactive) in the assay on SK-MEL-5; 36.4 µM (inactive) in the assay with MOLT-4; > 100 µM (inactive) with SNB-19; 70.3 µM (inactive) in the assay with OVCAR-8. The GI50 in the assay on HOP-62, in the assay on 786-0, in the assay with SR, in the assay on NCI-H226, in the assay with SK-OV-3 and in the assay on SNB-78 was > 100 µM (inactive) throughout. Also, the GI50 was 48.3 µM (inactive) with UACC-257, > 100 µM (inactive) with HCT-116, > 100 µM (inactive) in the assay with IGROV-1 and > 100 µM (inactive) in the assay on SK-MEL-28.

`CC(=O)OC1CC(n2cc(F)c(=O)[nH]c2=O)OC1CO` (stereo not drawn): the GI50 in the assay on BT-549 was 5.5 µM (inactive); with SF-268, 0.0807 µM (active); in the assay with ACHN, 0.0585 µM (active); in the assay with T47D it was 12.1 µM (inactive); with SK-MEL-5, 1.49 µM (inactive); with MOLT-4 it was 1.08 µM (active). Moreover, the GI50 with SNB-19 was 2.72 µM (inactive); in the assay with OVCAR-8, 0.668 µM (active); in the assay on HOP-62, 0.152 µM (active); with 786-0 it was 0.494 µM (active); in the assay on SR it was 0.604 µM (active); in the assay with NCI-H226 it was 49.1 µM (inactive). Further, the GI50 with Hs-578T was 7.4 µM (inactive); in the assay with SK-OV-3 it was 61.1 µM (inactive); in the assay with SNB-78, > 100 µM (inactive); with UACC-257 it was 49.1 µM (inactive); in the assay with HCT-116, 2.51 µM (inactive); in the assay on IGROV-1 it was > 61.7 µM (inactive). Moreover, the GI50 in the assay with NCI/ADR-RES was 1.93 µM (inactive); in the assay with SK-MEL-28 it was 15.6 µM (inactive).
